Measurements from patent publication US11179395B2, “Treating melanoma with mebendazole and a mitogen-activated kinase inhibitor” (GEORGETOWN UNIVERSITY, priority 2017, dated 2021).
Where two headings read alike, the source gives them in different places. Each block holds one compound with its values, some of them ahead of it.

Tests used:
[1] = Pharmacokinetic studies of MBZ formulations; type: in vivo, athymic mice; conditions: for mean plasma exposure at 8 hours / concentration at 8 h: MBZ 40 mg/kg oral gavage; for concentration at 8 h: athymic, mouse, plasma, oral, 40 mg/kg, read-out: mean plasma exposure at 8 hours
Method: In pharmacokinetic (PK) studies, MBZ was administered to athymic mice (described below) by oral gavage at a dose of 40 mg/kg in three different formulations (methylcellulose, oleic acid, or sesame oil/PBS) or methylcellulose in combination with cimetidine. MBZ and two metabolites, 2-Amino-5-benzoyl-1H bezimidizole (2ABB), and rac Dihydro MBZ (RDM), were quantified in mouse plasma as described in Bai et al., “Brain Penetration and Efficacy of Different Mebendazole Polymorphs in a Mouse Brain Tumor Model,” Clin. Cancer Res. 21:3462-3470 (2015)).

[2] = Pharmacokinetic studies of MBZ formulations; type: in vivo, athymic mice; conditions: MBZ 40 mg/kg oral gavage; for lower exposure with trametinib co-administration vs. methylcellulose: 8 hours
[3] = 10 mg/kg/day, chronic MBZ; cited from earlier work
[4] = tested on: BAK (BRAFWT/NRASQ61K) melanoma cells; assay: XTT cell viability assay; type: cell-based; conditions: Homo sapiens; cultured NRAS cells, FIG. 2A; read-out: IC80 (equivalent to patient mean peak plasma concentration)
Method: MBZ, dabrafenib, and trametinib were purchased from Sigma-Aldrich (St. Louis, Mo.) and ActiveBiochem (Maplewood, N.J.), respectively. […] Cell viability was assessed by an XTT assay, according to a manufacturer's specifications (Biotium Inc (Fremont, Calif.)). Reduced XTT was measured by absorbance at 490 nm on a PerkinElmer Victor 3 (Duluth, Ga.) plate reader. […]
The results shown are based on a single experiment in triplicate, and repeated in three independent experiments with essentially the same results. […] For determining synergism, the combination index (τ) was calculated from single dose-response curves and combination experiments as τ=xA/XA+xB/XB, in which, for a given cytotoxic effect, xA and xB are the concentrations of drugs A and B in the combination, and XA and XB are the concentrations of drugs A and B that achieve the same cytotoxic effect when given alone. […]

[5] = tested on: MEK; assay: In-vitro kinase assay; type: biochemical
Excerpt: (§1) Efforts to develop drugs targeting mutant BRAF led to FDA approval of vemurafenib in 2011 and dabrafenib in 2013. […] In addition, other MAPK pathway proteins including CRAF and MEK were identified.

[6] = tested on: BRAF; assay: In-vitro kinase assay; type: biochemical
Excerpt: as §1

[7] = biological target: VEGFR2 (Homo sapiens, UniProt P35968); assay: MBZ potency towards VEGFR2 compared with BRAF (FIG. 1C); type: biochemical
Sequence of VEGFR2 (P35968 20-1356): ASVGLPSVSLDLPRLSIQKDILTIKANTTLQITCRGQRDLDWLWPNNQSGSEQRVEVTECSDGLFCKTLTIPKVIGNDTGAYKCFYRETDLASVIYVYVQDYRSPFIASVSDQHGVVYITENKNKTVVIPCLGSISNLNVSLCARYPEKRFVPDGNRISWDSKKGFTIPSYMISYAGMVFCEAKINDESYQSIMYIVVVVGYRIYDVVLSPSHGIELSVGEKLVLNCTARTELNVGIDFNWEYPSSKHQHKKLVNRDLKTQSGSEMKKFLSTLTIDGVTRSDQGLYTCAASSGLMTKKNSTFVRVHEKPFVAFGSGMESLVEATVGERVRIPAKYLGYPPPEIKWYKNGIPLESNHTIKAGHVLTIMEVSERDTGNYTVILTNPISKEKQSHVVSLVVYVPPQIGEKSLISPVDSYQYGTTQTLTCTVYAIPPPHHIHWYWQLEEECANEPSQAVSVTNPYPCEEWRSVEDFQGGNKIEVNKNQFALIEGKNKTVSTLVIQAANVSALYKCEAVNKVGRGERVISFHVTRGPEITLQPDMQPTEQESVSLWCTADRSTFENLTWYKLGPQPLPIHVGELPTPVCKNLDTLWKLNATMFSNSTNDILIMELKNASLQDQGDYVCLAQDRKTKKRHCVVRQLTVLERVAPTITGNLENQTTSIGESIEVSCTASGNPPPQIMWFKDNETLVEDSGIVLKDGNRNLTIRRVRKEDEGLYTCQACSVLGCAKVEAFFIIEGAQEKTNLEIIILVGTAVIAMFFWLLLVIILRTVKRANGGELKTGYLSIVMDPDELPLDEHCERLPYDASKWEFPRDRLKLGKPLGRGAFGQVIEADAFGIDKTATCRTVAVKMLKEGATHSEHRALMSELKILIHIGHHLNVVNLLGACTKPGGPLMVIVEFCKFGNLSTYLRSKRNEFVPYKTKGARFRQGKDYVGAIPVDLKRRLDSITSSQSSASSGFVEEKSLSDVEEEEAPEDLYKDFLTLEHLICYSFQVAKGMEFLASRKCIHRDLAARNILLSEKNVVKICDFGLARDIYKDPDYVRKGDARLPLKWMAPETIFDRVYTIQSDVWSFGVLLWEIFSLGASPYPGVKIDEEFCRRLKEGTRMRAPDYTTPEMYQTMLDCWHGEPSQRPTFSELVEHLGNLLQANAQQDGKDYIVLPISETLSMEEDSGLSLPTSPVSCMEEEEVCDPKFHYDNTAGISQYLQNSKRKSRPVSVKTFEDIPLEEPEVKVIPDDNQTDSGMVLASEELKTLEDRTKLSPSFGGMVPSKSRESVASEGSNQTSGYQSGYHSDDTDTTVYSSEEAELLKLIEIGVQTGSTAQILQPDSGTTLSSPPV

[8] = tested on: patient-derived metastatic melanoma cells harboring a BRAFWT/NRASQ61K mutation profile; assay: Treatment of patient-derived metastatic melanoma cells (FIG. 7); type: cell-based, Human
Excerpt: In additional studies, patient-derived cells harboring a BRAFWT/NRASQ61K mutation profile were separated into CD133+ populations and CD133− populations.

[9] = tested on: MEK/ERK pathway in BAK NRASQ61K melanoma cells; assay: Reverse-phase protein array (RPPA); type: cell-based, Human; conditions: 10 nM or 100 nM; 1, 8 or 24 h
Method: Cell lysates were analyzed by reverse-phase protein array (RPPA). Samples were diluted to 0.5 mg/mL and dilutions printed on slides in triplicate. Slides were immunostained with 137 different antibodies specific for total proteins, or phosphorylated or cleaved products. […] Intensity values were normalized to that of total protein for each sample stained with Sypro Ruby (Invitrogen Carlsbad, Calif.)). Unsupervised cluster analysis http://www.hiv.1an1.ov/content/sequence/HEATMAP/heatmap.html was performed for all proteins in the RPPA using the standard bootstrap method.
Given the potential changes in tumor cell signaling and survival over the long time course of the xenografts, potential mechanisms by which MBZ+trametinib exerts its cytotoxic effects were examined using cultured BAK NRASQ61K melanoma cells. Cells were exposed to MBZ (10 nM or 100 nM), trametinib (10 nM or 100 nM), or a combination of the two for 1, 8, or 24 h, after which cell extracts were subjected to reverse-phase protein array (RPPA) analysis.

[10] = tested on: MEK/ERK pathway in BAK cells; assay: Immunoblot analysis of cultured cells; type: cell-based, Human; conditions: 100 nM; for pMEK1/2 S217/221 phosphorylation: combination within 30 min
Excerpt: FIGS. 5A-H are RPPA (A) and immunoblot (B-E) analyses that reveal suppression of the MAPK pathway, including ERK and its downstream substrates in melanoma cells exposed to MBZ+trametinib. A. […] Cell extracts derived at indicated times were subjected to RPPA analysis, and unsupervised hierarchal clustering was used to generate a heat map as described in Materials and Methods. […] F)-H) Immunoblot experiments were repeated with an additional melanoma cell line BUL, which harbors the same NRASQ61K mutation. […] All immunoblots were then reprobed with GAPDH as loading control. SDS-PAGE and transfer of separated proteins to nitrocellulose membranes were performed according to standard procedures. Membranes were stained with Ponceau S (0.1%) to verify equal loading and transfer of proteins, and then incubated with antibodies specific for pERK1/2 T202/Y204, pMEK1/2 S217/221, pBAD S-112, total BAD, total ERK1/2, total MEK1/2, BCL2 (Santa Cruz Biotech), BCLXL (Santa Cruz Biotech (Santa Cruz, Calif.)), cleaved PARP (Cell Signaling (Danvers, Mass.)), or GAPDH (Abeam (Cambridge, UK); loading control). Immune complexes were detected by incubation with appropriate horseradish peroxidase-conjugated antibodies to mouse or rabbit IgG (1:3000) and enhanced chemiluminescence (Pierce, Rockford, Ill.).

[11] = biological target: BRAFWT (Homo sapiens, UniProt P15056); assay: In-vitro binding affinity of MBZ (FIG. 1C)
Sequence of BRAFWT (P15056 whole entry): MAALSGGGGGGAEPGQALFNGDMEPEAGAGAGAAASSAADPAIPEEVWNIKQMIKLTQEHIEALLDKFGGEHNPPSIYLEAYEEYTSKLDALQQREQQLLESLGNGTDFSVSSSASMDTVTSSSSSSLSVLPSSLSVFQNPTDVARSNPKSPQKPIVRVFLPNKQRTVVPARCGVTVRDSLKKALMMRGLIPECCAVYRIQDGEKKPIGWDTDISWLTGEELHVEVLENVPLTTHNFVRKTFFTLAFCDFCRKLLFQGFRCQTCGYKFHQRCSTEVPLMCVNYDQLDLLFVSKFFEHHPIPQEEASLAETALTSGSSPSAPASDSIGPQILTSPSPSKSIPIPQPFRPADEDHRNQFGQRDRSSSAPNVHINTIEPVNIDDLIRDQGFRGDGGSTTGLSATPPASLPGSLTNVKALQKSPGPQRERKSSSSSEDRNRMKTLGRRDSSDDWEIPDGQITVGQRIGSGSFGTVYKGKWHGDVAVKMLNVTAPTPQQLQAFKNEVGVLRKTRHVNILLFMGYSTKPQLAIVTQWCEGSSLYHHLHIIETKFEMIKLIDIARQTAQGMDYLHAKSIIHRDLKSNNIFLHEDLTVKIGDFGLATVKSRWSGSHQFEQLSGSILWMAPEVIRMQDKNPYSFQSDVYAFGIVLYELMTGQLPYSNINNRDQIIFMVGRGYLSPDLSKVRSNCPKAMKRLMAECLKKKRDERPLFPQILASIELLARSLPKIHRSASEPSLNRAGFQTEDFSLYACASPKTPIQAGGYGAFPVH
Excerpt: as §1

[12] = biological target: BRAFV600E (Homo sapiens, UniProt P15056, V600E); assay: In-vitro binding affinity of MBZ (FIG. 1C)
Sequence of BRAFV600E (P15056 whole entry V600E): as the sequence (P15056 whole entry) above, with V600E counted along it
Excerpt: as §1

[13] = tested on: MEK1/2 and ERK1/2 phosphorylation; assay: Immunoblot analysis of xenograft tumor extracts; type: in vivo, athymic mice; conditions: tumors collected at termination of experiment; combination is HDT+MBZ
Method: Athymic mice were injected with 3×10^6 BAK melanoma cells, and tumors were allowed to grow to a volume of 100 mm^3. […] Time 0 is the tumor volume on the first day of treatment; tumor sizes were normalized to their size at time 0 of drug treatment. B) Mice were weighed every other day and body weights (g) plotted over time. Data from four experiments were combined for statistical analysis, to compare every mouse from each treatment group. The total mice for all experiments included vehicle control (n=13), LDT (n=12), MBZ (n=12), HDT (n=12), LDT+MBZ (n=12), and HDT+MBZ (n=15). The results are shown as the mean (+SD) of tumor volume in each group. C) and D) ERK and MEK phosphorylation was suppressed in large (C) or small (D) tumor xenografts from mice treated with T+MBZ. Tumor extracts were derived from xenografts, then subjected to immunoblot analysis using antibodies specific for total BRAT, phospho-BRAF, ERK1/2, phospho-ERK1/2, total MEK1/2, phospho-MEK1/2, or GAPDH as a loading control. SDS-PAGE and transfer of separated proteins to nitrocellulose membranes were performed according to standard procedures. […] Immune complexes were detected by incubation with appropriate horseradish peroxidase-conjugated antibodies to mouse or rabbit IgG (1:3000) and enhanced chemiluminescence (Pierce, Rockford, Ill.).

[14] = biological target: CRAF (Homo sapiens, UniProt P04049); assay: Affinity of MBZ for CRAF; type: binding
Sequence of CRAF (P04049 whole entry, canonical isoform): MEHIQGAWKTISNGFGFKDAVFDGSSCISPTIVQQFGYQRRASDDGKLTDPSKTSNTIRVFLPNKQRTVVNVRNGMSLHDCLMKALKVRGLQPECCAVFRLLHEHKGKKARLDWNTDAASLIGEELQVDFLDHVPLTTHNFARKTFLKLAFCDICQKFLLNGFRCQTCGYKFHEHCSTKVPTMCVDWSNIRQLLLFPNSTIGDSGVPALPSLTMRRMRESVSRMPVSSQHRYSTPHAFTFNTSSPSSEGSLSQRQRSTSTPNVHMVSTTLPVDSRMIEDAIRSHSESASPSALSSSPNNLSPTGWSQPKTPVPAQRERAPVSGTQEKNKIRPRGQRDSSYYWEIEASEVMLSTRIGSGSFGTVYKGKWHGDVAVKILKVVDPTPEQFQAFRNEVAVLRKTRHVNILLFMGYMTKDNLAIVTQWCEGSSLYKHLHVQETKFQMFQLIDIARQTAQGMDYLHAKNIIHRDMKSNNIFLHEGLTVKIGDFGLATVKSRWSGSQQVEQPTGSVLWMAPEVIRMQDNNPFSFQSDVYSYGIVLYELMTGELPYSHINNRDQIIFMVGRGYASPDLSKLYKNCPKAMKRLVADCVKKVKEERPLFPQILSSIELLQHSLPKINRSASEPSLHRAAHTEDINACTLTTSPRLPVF
Excerpt: MBZ interacts with VEGFR in silico and MBZ interacts with additional kinases in vitro, including BCR-ABL and BRAF. TMFS was used to show the nature of the interactions between MBZ, and VEGFR, and with BRAFWT or BRAFV600E. […] In fact these inhibitors actually enhance growth of NRASmut/BRAFWT tumors by paradoxically further activating the MAPK pathway through induced conformational changes in wild type RAF isoforms, inducing dimerization, membrane localization, and activation by RAS.

[15] = tested on: BAK, BUL and STU melanoma cells; assay: XTT cell viability assay, all three melanoma cell lines; type: cell-based, Human; conditions: 72 h
Method: FIGS. 2A-2C show decreased viability of melanoma cells exposed to MBZ, dabrafenib (D), trametinib (T), or combinations of T+D or MBZ+trametinib. A) BAK (BRAFWT/NRASQ61K); B) BUL (BRAFWT/NRASQ61K); and C.) STU (BRAFV600K/NRASWT) melanoma cells were exposed to the indicated concentrations of MBZ, D, T, T+D or MBZ+trametinib (T+MBZ) for 72 h, and subjected to XTT cell viability assays, as described in the Examples. Error bars represent mean±SD for triplicates. […] The results shown are based on a single experiment in triplicate; and repeated in three independent experiments with essentially the same results.
MBZ, dabrafenib, and trametinib were purchased from Sigma-Aldrich (St. Louis, Mo.) and ActiveBiochem (Maplewood, N.J.), respectively. 5×10^3 viable cells per well were plated in 96-well dishes and allowed to recover for 12 h prior to drug treatment. Cells in triplicate wells were treated for up to 72 h (based on initial time course experiments showing maximal effects at that time point) with different concentrations of trametinib, dabrafenib, or MBZ alone, or a combination of MBZ and trametinib. Negative controls were exposed to vehicle DMSO in the same volumes. Cell viability was assessed by an XTT assay, according to a manufacturer's specifications (Biotium Inc (Fremont, Calif.)). Reduced XTT was measured by absorbance at 490 nm on a PerkinElmer Victor 3 (Duluth, Ga.) plate reader. Cells exposed to detergent served as a positive control.

[16] = tested on: BAK (BRAFWT/NRASQ61K) melanoma xenografts; assay: Mouse xenografting, tumor growth; type: in vivo, athymic mice; conditions: oral gavage; MBZ 40 mg/kg/qad, trametinib 0.1 or 3 mg/kg/qd
Method: Athymic mice were injected with 3×10^6 BAK melanoma cells, and tumors were allowed to grow to a volume of 100 mm^3. Animals were then gavaged with vehicle emulsion control, 40 mg/kg/qad (every other day) MBZ, low dose trametinib (LDT; 0.1 mg/kg/qd (once a day)), high dose trametinib (HDT; 3 mg/kg/qd) or a combination of MBZ and LDT or HDT, A) Tumor widths and lengths were measured and volumes calculated as w2×l/2, where width is defined as the smaller of the tumor dimensions. Time 0 is the tumor volume on the first day of treatment; tumor sizes were normalized to their size at time 0 of drug treatment. B) Mice were weighed every other day and body weights (g) plotted over time. […]
Athymic 6-week old male mice (Taconic (Hudson, N.Y.)) were acclimated to the Division of Comparative Medicine at Georgetown University a week prior to xenografting. […] Tumor growth was measured with calipers, and drug treatment started when tumor volumes reached 100 mm^3, after which mice were monitored daily for drug efficacy, as well for adverse effects, including weight and behavior. […] Each tumor from each treatment group was measured on indicated days, and all tumor sizes were then normalized to their size at day 0 of drug treatment. […] The results were expressed as the mean (±SD) of tumor volume in each group.

SMILES: Nc1nc2cc(C(=O)c3ccccc3)ccc2[nH]1 [2ABB, 2-Amino-5-benzoyl-1H bezimidizole]
- mean plasma exposure at 8 hours ([1]; methylcellulose formulation): 425 ng/mL
- mean plasma exposure at 8 hours ([1]; oleic acid formulation): 427 ng/mL
- lower exposure with trametinib co-administration vs. methylcellulose [2]: ~45%
- mean plasma exposure at 8 hours ([2]; trametinib co-administration): 242 ng/mL

SMILES: CC(C)(C)c1nc(-c2cccc(NS(=O)(=O)c3c(F)cccc3F)c2F)c(-c2ccnc(N)n2)s1 [dabrafenib]
- cytotoxicity as single agent [15]: resistance

SMILES: CC(=O)Nc1cccc(-n2c(=O)n(C3CC3)c(=O)c3c(Nc4ccc(I)cc4F)n(C)c(=O)c(C)c32)c1 [trametinib]
- pMEK1/2 S217/221 phosphorylation [10]: not inhibited

Now from value to compound, other results behind:

- mean plasma exposure at 8 hours ([1]; methylcellulose formulation): 57 ng/mL
- mean plasma exposure at 8 hours ([1]; oleic acid formulation): 543 ng/mL
- lower exposure with trametinib co-administration vs. methylcellulose [2]: did not alter
SMILES: COC(=O)Nc1nc2ccc(C(O)c3ccccc3)cc2[nH]1 (racemic) [RDM, rac Dihydro MBZ]

- concentration at 8 h ([1]; methylcellulose formulation): 473 ng/mL
- concentration at 8 h ([1]; oleic acid formulation): 1390 ng/mL
- difference in exposure between formulations or combinations ([1]; one hour, P>0.05 Kruskal-Wallis): no difference
- inhibition of kinase activity by MBZ [5]: nM range
- inhibition of kinase activity by MBZ [6]: nM range
- potency towards BRAF versus VEGFR2 [7]: more potency towards BRAF
- Kd [11]: 230 nM
- Kd [12]: 210 nM
- affinity for CRAF [14]: very low affinity
- lower exposure with trametinib co-administration vs. methylcellulose [2]: did not alter
SMILES: COC(=O)Nc1nc2ccc(C(=O)c3ccccc3)cc2[nH]1 [MBZ, methyl N-[6-(benzoyl)-1H-benzimidazol-2-yl] carbamate]
- mean peak plasma level [3]: 470 nM
- peak plasma level, variability between patients [3]: 0.34 to 1.69 µM
- IC80 [4]: ~470 nM
- sensitivity to treatment [8]: sensitivity
- phosphorylation of proteins associated with the MEK/ERK pathway [9]: down-regulated
- ERK1/2 (T202/Y204) phosphorylation ([10]; combination undetectable by 30 min): diminished
- pMEK1/2 S217/221 phosphorylation [10]: not inhibited
- MEK1/2 and ERK1/2 phosphorylation in tumors [13]: suppress MEK and ERK phosphorylation
- cytotoxicity as single agent [15]: weak cytotoxic activity
- concentration at which significant growth inhibition was observed ([15]; 2-way ANOVA): ≥ 10 nM
- tumor growth [16]: did not work as a monotherapy
